{
  "source": "paper PMC7614683",
  "about": "“A small molecule PI3Kα activator for cardioprotection and neuroregeneration” (Nature, 2023)",
  "key": {"[1]": {"tested_on": "MEFs", "experiment": "Phosphoinositide quantification by mass spectrometry, MEFs", "assay_type": "cell-based, mouse", "experimental": "A549 cells (5.10^5) or wild-type MEFs (3.10^5) were plated in complete media onto 3.5 cm dishes or 60 mm dishes respectively for 24 h, prior to FCS-free starvation media for 16 h. MEFs, in addition, were supplemented with arachidonic acid in the FCS-free starvation media as previously described. […] Reactions were terminated in 600 μl ice-cold 1 M HCl and cells scraped and resuspended, then divided into two equal samples in eppendorfs. […] The data are shown as response ratios, calculated by normalizing the multiple reaction monitoring (MRM)-targeted lipid integrated response area to that of a known amount of relevant internal standard. To account for any cell input variability, PIP3 response ratios were normalized to C38:4-PI response ratios; while PI(3,4)P2 response ratios were normalised to PI(4,5)P2 response ratios. Data shown are mean ±SD for n ≥3, except for non-DMSO control in MEF PIP3 measurements where n=1."}, "[2]": {"tested_on": "rat sciatic nerve", "experiment": "Rat sciatic nerve crush injury model", "assay_type": "in vivo", "details": "21 days, single animals", "text": "We used the rat sciatic nerve crush model of peripheral nerve injury and regeneration[82]–[84]. Adult female Sprague Dawley rats (230-280 g, n=10, Charles River, UK) were anaesthetised by isoflurane inhalation in an induction chamber (5% isoflurane in O2, 0.8 l/min). Anaesthesia was maintained with 1.5-2.5% isoflurane inhalation, and the left sciatic nerve exposed at mid-thigh level.\nThe nerve was crushed by application of constant pressure using fully closed sterile type 4 tweezers (TAAB) for 15 sec. This was repeated two more times at the same point, with 45° rotation between each crush. The injury site was marked with a 10/0 epineurial non-absorbant suture (Ethicon). Following injury, a single 2 μl injection of 1938 solution (5 μM in sterile H2O) or vehicle (sterile dH2O) was administered proximal to the crush site with a 10 μl Hamilton syringe. An osmotic minipump (Alzet 1004, Charles River, UK) was also implanted between the muscle layers, adjacent to the nerve oriented with the outlet nearest to the crush site, loaded with 1938 solution (100 μM in sterile H2O) or vehicle (sterile H2O). Animals were randomly assigned to groups (n=5 per group) and one experimenter was kept blind to condition for conducting functional and histological analyses. Overlying muscle layers were closed using 4/0 sutures (Ethicon) and the skin was closed with wound clips (Clay Adams). Animals were left to recover for 21 days.\nAt the end-point of the experiment (21 days), rats were anaesthetised and the sciatic nerve exposed as described above. A reference, ground (Natus) and recording electrode (Ambu Neuroline) were attached above the hip bone, into the tail, and into the tibialis anterior muscle respectively. A microchannel neurointerface (MNI) was placed approximately 2 mm proximal to the injury site and used to stimulate the nerve. The MNI was manufactured using a previously documented protocol. Electrode impedance of the MNI was 27.1 ±19.8 kΩ at 1k Hz. Compound muscle action potential (CMAP) was obtained by sciatic nerve stimulation with square wave pulses of 100 μsec with intensity from 1-10 mA. Stimulus was increased in 0.2 mA steps until muscle response amplitude no longer increased. CMAP amplitude was measured from peak to peak and recorded in triplicate for both the ipsilateral and contralateral side. The CMAP with the largest amplitude was selected for analysis.\nA modified multipoint stimulation technique was used to calculate Motor Unit Number Estimation (MUNE)[86]–[88]. Incremental responses were obtained by delivering a submaximal stimulation of 100 μsec duration at a frequency of 1Hz while increasing the stimulus intensity in increments of 0.02 mA to obtain minimal responses. The initial response was obtained with a stimulus intensity of between 0.21 mA and 0.70 mA. […] Additional Single Motor Unit Potentials (SMUPs) were evoked by stimulation in increments of 0.02 mA to obtain a minimum of four additional increments. The position of the stimulating electrode and the location of the recording electrode was changed to allow the recording of SMUPs from a different site of the muscle. This process was repeated at least three times. The CMAP was divided by the mean magnitude of SMUPs to quantify MUNE.\nAfter electrophysiology recordings, animals were culled with sodium pentobarbital injection according to local regulations. Sciatic nerves, including the common peroneal branch, and tibialis anterior muscles were collected and placed in 4% paraformaldehyde (PFA). Nerve samples were fixed overnight in 4% PFA at 4°C before transferring to PBS. Nerve samples were divided into sciatic nerves including the crush site, and the common peroneal branch for sectioning. Nerve samples were immersed in 30% sucrose overnight at 4°C, then snap frozen in Neg-50 frozen section medium (Thermo Scientific) using liquid nitrogen cooled isopentane. […]"}, "[3]": {"details": "sciatic nerve 3 mm distal to injury"}, "[4]": {"details": "sciatic nerve 6 mm distal to injury"}},
  "note": "pEC50: −log10 of the molar value. Where “and” joins values, the source holds several entries; their conditions need not be identical. Equal values may be shown once.",
  "data": [
    {"smiles": "CCN1CCN(c2ccc(Nc3cc(Nc4cccc5c4N(C(C)=O)CC5)ccn3)cc2)CC1", "note": "[Compound 1938]", "values": [
      {"measurement": "time for which maximal PIP3 level is maintained", "setting": "[1]", "result": "up to 40 min"},
      {"measurement": "time of maximal PIP3 level", "setting": "[1]", "result": 5, "unit": "min"},
      {"measurement": "time to increased PIP3 levels", "setting": "[1]", "result": "≤ 30", "unit": "s"},
      {"measurement": "concentration at which PIP3 induction plateaus", "setting": "[1]; 2 min", "result": "around 10 μM"},
      {"measurement": "PIP3 levels compared with insulin and PDGF", "setting": "[1]; 2 min time point", "result": "comparable to those induced by insulin"},
      {"measurement": "pEC50", "setting": "[1]; Mus musculus, 2 min, read-out: EC50 of PIP3 induction", "result": "~5.30"},
      {"measurement": "Nerve Branch ChAT (ChAT-positive motor axons, distal common peroneal nerve)", "setting": "[2]", "result": "increase in 1938-treated animals in the number of choline acetyltransferase (ChAT)-positive motor axons and 34 and 72 and 42 and 49 and 62"},
      {"measurement": "Axons, ChAT", "setting": "[2]; [3]", "result": "1228 and 1010 and 1060 and 720 and 1883"},
      {"measurement": "Axons, Neurofilament", "setting": "[2]; [3]", "result": "7100 and 6477 and 6615 and 8292 and 8493"},
      {"measurement": "Axons, ChAT", "setting": "[2]; [4]", "result": "922 and 986 and 763 and 966 and 1022"},
      {"measurement": "Axons, Neurofilament", "setting": "[2]; [4]", "result": "5299 and 5863 and 4746 and 5437 and 5016"},
      {"measurement": "CMAP Recovery", "setting": "[2]; tibialis anterior muscle", "result": "greater compound muscle action potential (CMAP) recovery and 16.9542 % contralateral and 21.941 % contralateral and 17.4705 % contralateral and 17.5154 % contralateral and 28.7184 % contralateral"},
      {"measurement": "MUNE Recovery", "setting": "[2]; tibialis anterior muscle", "result": "increased motor unit number estimation and 60.8971 % contralateral and 47.6617 % contralateral and 40.6292 % contralateral and 44.6256 % contralateral and 48.3614 % contralateral"},
      {"measurement": "NMJ", "setting": "[2]; tibialis anterior muscle", "result": "17 % reinnervation and 31 % reinnervation and 16 % reinnervation and 23 % reinnervation and 26 % reinnervation"}
    ]}
  ]
}
